Source: BindingDB's records for doi:10.1016/0014-2999(96)00428-1 (Glaxo Research & Development, 1996)
Where “and” joins values, the source holds several entries; their conditions need not be identical. Equal entries are not always repeated.

Biological target: Hrh3 protein (Rattus norvegicus, UniProt Q5PPG3)
Sequence (Q5PPG3 whole entry): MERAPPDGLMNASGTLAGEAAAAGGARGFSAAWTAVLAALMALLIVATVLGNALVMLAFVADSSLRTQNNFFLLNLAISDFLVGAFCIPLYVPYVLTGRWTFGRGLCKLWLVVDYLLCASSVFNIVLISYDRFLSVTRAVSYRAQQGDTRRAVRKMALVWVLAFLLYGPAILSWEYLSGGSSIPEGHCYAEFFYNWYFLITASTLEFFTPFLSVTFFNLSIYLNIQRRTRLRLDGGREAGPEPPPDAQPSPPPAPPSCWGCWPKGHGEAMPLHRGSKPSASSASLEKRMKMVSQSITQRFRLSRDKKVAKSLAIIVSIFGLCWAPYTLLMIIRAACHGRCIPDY

## CNC(=S)NCCCCc1cnc[nH]1 [1-[4-(1H-imidazol-5-yl)butyl]-3-methylthiourea]
  Ki: 0.0631 µM

## COc1ccc(CN(CCN(C)C)c2ccccn2)cc1
  Ki: 7.94 µM and > 10 µM

## CN/C([CH-][N+](=O)[O-])=[NH+]\CCSCc1ccc(CN(C)C)o1
  Ki: 5.01 µM and > 10 µM

## NC(=NC1CCCCC1)N1CCC(c2cnc[nH]2)CC1 [GR-168320]
  Ki: 0.00015 µM and 0.00019 µM

## Cc1[nH]cnc1CSCCNC(=N)NCCCc1c[nH]cn1 [2-[3-(1H-imidazol-5-yl)propyl]-1-(2-{[(5-methyl-1H-imidazol-4-yl)methyl]sulfanyl}ethyl)guanidine]
  Ki: 0.0199 µM and 0.0126 µM
